From US11691949B2, “Quinoline sulfonamide compounds and their use as antibacterial agents” (OTAGO INNOVATION LIMITED, priority 2017, dated 2023)
≈ marks a conversion by molar mass, not a printed value. Where two headings read alike, the source gives them in different places. Each block holds one compound with its values, some of them ahead of it.

Legend:
Type in all cases: cell-based
S. uberis ATCC 19436 [1] = experiment: MIC by broth microdilution, S. uberis; conditions: Streptococcus uberis
In short: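 This broth microdilution assay used S. uberis ATCC 19436 in Todd Hewitt Broth, with zinc sulphate heptahydrate added where required to a final 50 μM. Inhibitor concentration ranges came from two-fold serial dilutions in 96-well flat bottom plates at 200 μl. Approximately 5×10^5 cfu/mL cells were incubated for 24 h at 37° C. and 200 rpm. Wells were then read at OD600 on a Varioskan Flash reader.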

S. aureus ATCC 6538 [2] = experiment: MIC by broth microdilution, S. aureus; conditions: Staphylococcus aureus
In short: (§1)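 Two-fold serial dilutions were tested in broth at ~5×10^5 cfu/mL: S. aureus in TSB or CAMHB, E. coli in LB or CAMHB, with 50 μM zinc sulphate added as required. After 24 h at 37° C, 200 rpm, MIC was the lowest concentration showing no growth by OD600.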

E. coli ATCC 10596 = experiment: MIC by broth microdilution, E. coli; conditions: Escherichia coli
In short: as §1

S. uberis ATCC 19436 [3] = experiment: MBC by Miles-Misra drop-plate method, S. uberis; conditions: Streptococcus uberis
Method: (§2) Antibacterial susceptibility testing was performed in triplicate (biological) by measuring minimum inhibitory concentrations (MICs) by broth microdilution in 96-well flat bottom microtiter plates (ThermoFisher Scientific, New Zealand). S. uberis ATCC 19436, S. aureus ATCC 6538, or E. coli ATCC 10596 cells grown overnight were diluted to an OD600 of approximately 0.025, so that the final concentration of cells in the MIC assay was approximately 5×10^5 cfu/mL in media as follows: S. uberis; Todd Hewitt Broth (THB), S. aureus; Tryptic Soy Broth (TSB) and Cation Adjusted Muller Hinton Broth (CAMHB), and E. coli; Lysogeny Borth (LB) and CAMHB, before being dispensed into microtiter wells. As required additional sterile Zinc Sulphate (Heptahydrate) was supplemented into the media, so the final concentration was 50 μM. Test compounds were added to starting wells and two-fold serial dilutions were undertaken to generate a range of inhibitor concentrations at a final volume of 200 μl. Media and test compound-free (untreated) controls were included in each microtiter plate in triplicate. After 24 h incubation at 37° C. and 200 rpm, the OD600 of wells were read using a Varioskan Flash plate reader (ThermoFisher Scientific, New Zealand). The MIC was reported as the lowest concentration of the test compound for which no growth occurred, as determined by OD600 readings. The minimum bactericidal concentration (MBC) was determined using the Miles-Misra drop-plate method to measure the viability of cells in response to test compound challenge.

S. aureus ATCC 6538 [4] = experiment: MBC by Miles-Misra drop-plate method, S. aureus; conditions: Staphylococcus aureus
Method: as §2

E. coli ATCC 10536 = experiment: MBC by Miles-Misra drop-plate method, E. coli; conditions: Escherichia coli
Method: as §2

[5] = ATCC19436, No Zinc, read-out: S. uberis ATCC 19436 MIC
[6] = ATCC19436, Zinc (50 μM), read-out: S. uberis ATCC 19436 MIC
[7] = ATCC6538, No Zinc, read-out: S. aureus ATCC 6538 MIC
[8] = ATCC6538, Zinc (50 μM), read-out: S. aureus ATCC 6538 MIC
[9] = ATCC 10536 / ATCC 10596, No Zinc, read-out: E. coli ATCC 10536 MIC
[10] = ATCC 10536 / ATCC 10596, Zinc (50 μM), read-out: E. coli ATCC 10536 MIC
[11] = ATCC19436, No Zinc, read-out: S. uberis ATCC 19436 MBC
[12] = ATCC19436, Zinc (50 μM), read-out: S. uberis ATCC 19436 MBC
[13] = ATCC6538, No Zinc, read-out: S. aureus ATCC 6538 MBC
[14] = ATCC6538, Zinc (50 μM), read-out: S. aureus ATCC 6538 MBC
[15] = ATCC10536, No Zinc, read-out: E. coli ATCC 10536 MBC
[16] = ATCC10536, Zinc (50 μM), read-out: E. coli ATCC 10536 MBC

Structure (SMILES): N/N=C/c1ccc2cccc(NS(=O)(=O)c3ccc(C(F)(F)F)cc3)c2n1 [ZDR127, (E)-N-(2-(Hydrazineylidenemethyl)quinolin-8-yl)-4-(trifluoromethyl)benzenesulfonamide]
MIC (S. uberis ATCC 19436 [1]; [5]): > 256 µg/mL
MIC (S. uberis ATCC 19436 [1]; [6]): 1 µg/mL (≈ 2.54 µM)
MIC (S. aureus ATCC 6538 [2]; [7]): 16 µg/mL (≈ 40.6 µM)
MIC (S. aureus ATCC 6538 [2]; [8]): 16 µg/mL (≈ 40.6 µM)
MIC (E. coli ATCC 10596; [9]): > 256 µg/mL
MIC (E. coli ATCC 10596; [10]): > 256 µg/mL
MBC (S. uberis ATCC 19436 [3]; [11]): > 256 µg/mL
MBC (S. uberis ATCC 19436 [3]; [12]): 2 µg/mL (≈ 5.07 µM)
MBC (S. aureus ATCC 6538 [4]; [13]): > 256 µg/mL
MBC (S. aureus ATCC 6538 [4]; [14]): > 256 µg/mL
MBC (E. coli ATCC 10536; [15]): > 256 µg/mL
MBC (E. coli ATCC 10536; [16]): > 256 µg/mL

Structure (SMILES): N=C(N)NCCNCc1ccc2cccc(NS(=O)(=O)c3ccc(C(F)(F)F)cc3)c2n1 [ZDR143, N-(2-(((2-Guanidinoethyl)amino)methyl)quinolin-8-yl)-4-(trifluoromethyl)benzenesulfonamide di-trifluoroacetate]
MIC (S. uberis ATCC 19436 [1]; ATCC19436, read-out: S. uberis ATCC 19436 MIC, No Zinc): 8 µg/mL (≈ 17.1 µM)
MIC (S. uberis ATCC 19436 [1]; ATCC19436, read-out: S. uberis ATCC 19436 MIC, Zinc (50 μM)): 4 µg/mL (≈ 8.57 µM)
MIC (S. aureus ATCC 6538 [2]; ATCC6538, read-out: S. aureus ATCC 6538 MIC, No Zinc): 8 µg/mL (≈ 17.1 µM)
MIC (S. aureus ATCC 6538 [2]; ATCC6538, read-out: S. aureus ATCC 6538 MIC, Zinc (50 μM)): 8 µg/mL (≈ 17.1 µM)
MIC (E. coli ATCC 10596; ATCC 10536 / ATCC 10596, read-out: E. coli ATCC 10536 MIC, No Zinc): 16 µg/mL (≈ 34.3 µM)
MIC (E. coli ATCC 10596; ATCC 10536 / ATCC 10596, read-out: E. coli ATCC 10536 MIC, Zinc (50 μM)): 16 µg/mL (≈ 34.3 µM)
MBC (S. uberis ATCC 19436 [3]; ATCC19436, read-out: S. uberis ATCC 19436 MBC, No Zinc): 8 µg/mL (≈ 17.1 µM)
MBC (S. uberis ATCC 19436 [3]; ATCC19436, read-out: S. uberis ATCC 19436 MBC, Zinc (50 μM)): 8 µg/mL (≈ 17.1 µM)
MBC (S. aureus ATCC 6538 [4]; ATCC6538, read-out: S. aureus ATCC 6538 MBC, No Zinc): 16 µg/mL (≈ 34.3 µM)
MBC (S. aureus ATCC 6538 [4]; ATCC6538, read-out: S. aureus ATCC 6538 MBC, Zinc (50 μM)): 16 µg/mL (≈ 34.3 µM)
MBC (E. coli ATCC 10536; ATCC10536, read-out: E. coli ATCC 10536 MBC, No Zinc): 32 µg/mL (≈ 68.6 µM)
MBC (E. coli ATCC 10536; ATCC10536, read-out: E. coli ATCC 10536 MBC, Zinc (50 μM)): 32 µg/mL (≈ 68.6 µM)

The remaining compounds from weak to strong by MIC (S. uberis ATCC 19436 [1]; [5]), led by results:

MIC (S. uberis ATCC 19436 [1]; [5]): 8 µg/mL (≈ 20.2 µM)
MIC (S. uberis ATCC 19436 [1]; [6]): 0.125 µg/mL (≈ 0.316 µM)
MIC (S. aureus ATCC 6538 [2]; [7]): 4 µg/mL (≈ 10.1 µM)
MIC (S. aureus ATCC 6538 [2]; [8]): 4 µg/mL (≈ 10.1 µM)
MIC (E. coli ATCC 10596; [9]): > 256 µg/mL
MIC (E. coli ATCC 10596; [10]): > 256 µg/mL
Structure (SMILES): O=S(=O)(Nc1cccc2ccc(/C=N/O)nc12)c1ccc(C(F)(F)F)cc1 [ZDR125, (E)-N-(2-((Hydroxyimino)methyl)quinolin-8-yl)-4-(trifluoromethyl)benzenesulfonamide]
MBC (S. uberis ATCC 19436 [3]; [11]): 8 µg/mL (≈ 20.2 µM)
MBC (S. uberis ATCC 19436 [3]; [12]): 0.5 µg/mL (≈ 1.26 µM)
MBC (S. aureus ATCC 6538 [4]; [13]): > 256 µg/mL
MBC (S. aureus ATCC 6538 [4]; [14]): > 256 µg/mL
MBC (E. coli ATCC 10536; [15]): > 256 µg/mL
MBC (E. coli ATCC 10536; [16]): > 256 µg/mL

MIC (S. uberis ATCC 19436 [1]; [5]): 8 µg/mL (≈ 15.4 µM)
MIC (S. uberis ATCC 19436 [1]; [6]): 1 µg/mL (≈ 1.93 µM)
MIC (S. aureus ATCC 6538 [2]; [7]): 8 µg/mL (≈ 15.4 µM)
MIC (S. aureus ATCC 6538 [2]; [8]): 4 µg/mL (≈ 7.71 µM)
MIC (E. coli ATCC 10596; [9]): 256 µg/mL (≈ 494 µM)
MIC (E. coli ATCC 10596; [10]): 256 µg/mL (≈ 494 µM)
Structure (SMILES): O=[N+]([O-])c1ccc(O)c(NCc2ccc3cccc(NS(=O)(=O)c4ccc(C(F)(F)F)cc4)c3n2)c1 [ZDR170, N-(2-(((2-Hydroxy-5-nitrophenyl)amino)methyl)quinolin-8-yl)-4-(trifluoromethyl)benzenesulfonamide]
MBC (S. uberis ATCC 19436 [3]; [11]): 16 µg/mL (≈ 30.9 µM)
MBC (S. uberis ATCC 19436 [3]; [12]): 2 µg/mL (≈ 3.86 µM)
MBC (S. aureus ATCC 6538 [4]; [13]): 128 µg/mL (≈ 247 µM)
MBC (S. aureus ATCC 6538 [4]; [14]): 128 µg/mL (≈ 247 µM)
MBC (E. coli ATCC 10536; [15]): > 256 µg/mL
MBC (E. coli ATCC 10536; [16]): > 256 µg/mL

MIC (S. uberis ATCC 19436 [1]; [5]): 8 µg/mL (≈ 16.9 µM)
MIC (S. uberis ATCC 19436 [1]; [6]): 0.5 µg/mL (≈ 1.06 µM)
MIC (S. aureus ATCC 6538 [2]; [7]): 4 µg/mL (≈ 8.45 µM)
MIC (S. aureus ATCC 6538 [2]; [8]): 4 µg/mL (≈ 8.45 µM)
MIC (E. coli ATCC 10596; [9]): > 256 µg/mL
MIC (E. coli ATCC 10596; [10]): > 256 µg/mL
Structure (SMILES): O=S(=O)(Nc1cccc2ccc(CNc3ccccc3O)nc12)c1ccc(C(F)(F)F)cc1 [ZDR171, N-(2-(((2-Hydroxyphenyl)amino)methyl)quinolin-8-yl)-4-(trifluoromethyl)benzenesulfonamide]
MBC (S. uberis ATCC 19436 [3]; [11]): 8 µg/mL (≈ 16.9 µM)
MBC (S. uberis ATCC 19436 [3]; [12]): 0.5 µg/mL (≈ 1.06 µM)
MBC (S. aureus ATCC 6538 [4]; [13]): 16 µg/mL (≈ 33.8 µM)
MBC (S. aureus ATCC 6538 [4]; [14]): 32 µg/mL (≈ 67.6 µM)
MBC (E. coli ATCC 10536; [15]): > 256 µg/mL
MBC (E. coli ATCC 10536; [16]): > 256 µg/mL

MIC (S. uberis ATCC 19436 [1]; [5]): 2 µg/mL (≈ 3.69 µM)
MIC (S. uberis ATCC 19436 [1]; [6]): 0.5 µg/mL (≈ 0.922 µM)
MIC (S. aureus ATCC 6538 [2]; [7]): 2 µg/mL (≈ 3.69 µM)
MIC (S. aureus ATCC 6538 [2]; [8]): 2 µg/mL (≈ 3.69 µM)
MIC (E. coli ATCC 10596; [9]): > 256 µg/mL
MIC (E. coli ATCC 10596; [10]): > 256 µg/mL
Structure (SMILES): O=S(=O)(Nc1cccc2ccc(CNc3cc(Cl)cc(Cl)c3O)nc12)c1ccc(C(F)(F)F)cc1 [ZDR167, N-(2-(((3,5-Dichloro-2-hydroxyphenyl)amino)methyl)quinolin-8-yl)-4-(trifluoromethyl)benzenesulfonamide]
MBC (S. uberis ATCC 19436 [3]; [11]): 8 µg/mL (≈ 14.8 µM)
MBC (S. uberis ATCC 19436 [3]; [12]): 0.5 µg/mL (≈ 0.922 µM)
MBC (S. aureus ATCC 6538 [4]; [13]): 8 µg/mL (≈ 14.8 µM)
MBC (S. aureus ATCC 6538 [4]; [14]): 8 µg/mL (≈ 14.8 µM)
MBC (E. coli ATCC 10536; [15]): > 256 µg/mL
MBC (E. coli ATCC 10536; [16]): > 256 µg/mL
